≈ marks a conversion by molar mass, not a printed value. Where two headings read alike, the source gives them in different places.
Assays:
udder = assay: Number of leucocytes (somatic cells) in milk / irritation of the udder; type: in vivo, cow; conditions: for number of leucocytes (sematic cells) in milk, 40 hrs.: 40 hrs after 500 mg in 7 ml P.E.G. base; for number of leucocytes (sematic cells) in milk, 48 hrs.: 48 hrs after 500 mg in 7 ml P.E.G. base; for number of leucocytes (sematic cells) in milk, 56 hrs.: 56 hrs after 500 mg in 7 ml P.E.G. base; for number of leucocytes (sematic cells) in milk, before: before administration (baseline)
Procedure: Thereafter 500 mg of each of said compounds in 7 ml of a P.E.G. base and also 7 ml of said base above were administered to several cows and the number of leucocytes (sematic cells) in 10^6 per ml of milk were measured before administration and 40, 48 and 56 hours thereafter. The numbers of leucocytes present indicate the degree of irritation of the udder.

[1] = test system: Strep.uberis and Stap.Aureus; assay: Activity against mastitis bacteria in presence of milk (Table I, summary in words); type: cell-based
Source text: (§1) The activity of some of said nitrofuryl quinolines derivatives against Strep.uberis and Stap.Aureus in milk has been compared with the activity of some of the compounds so far utilised in the treatment of bovine mastitis. The results are shown in Table I. (The nitrofuryl quinoline derivatives have general formula [drawing 1] the meaning of R, A, R', B, Y, X and Z being given in the Table. R1 =O whenever indicated then the N-oxide is concerned; NF stands for nitrofuryl)

Staph.Aureus = assay: Minimal bactericidal activity (MBC) in milk, field isolates; type: cell-based; conditions: for MBC: Staphylococcus aureus
Source text: as §1
(§2) Minimal Bactericidal/Activity (MBC) of representative Nitrofuryl
(§3) in mcg/ml in milk at pH 7.2 - 7.4. Versus Standards (Field

Strep.uberis = assay: as above; type: cell-based; conditions: for MBC: Streptococcus uberis
Source text: as §1, §2, §3

[2] = Residue of active compound in milk of the cow; type: in vivo; conditions: bovine, milk, 500 mg in 7 ml P.E.G. base
Procedure: Said four compounds were then tested for the length of time they could be detected in the milk of the cow. For this purpose 500 mg in 7 ml of a polyethylene glycol (P.E.G.) base of each compound were administered to several cows and the residue of active compound in milk were measured in mcg/ml after 24, 32 and 40 hours respectively.

[3] = in milk at pH 7.2 - 7.4, field isolate 2337, read-out: Minimal Bactericidal Activity (MBC), Staph.Aureus 2337
[4] = in milk at pH 7.2 - 7.4, field isolate 2372, read-out: Minimal Bactericidal Activity (MBC), Staph.Aureus 2372
[5] = in milk at pH 7.2 - 7.4, field isolate 60B, read-out: Minimal Bactericidal Activity (MBC), Strep.uberis 60B
[6] = in milk at pH 7.2 - 7.4, field isolate 127A, read-out: Minimal Bactericidal Activity (MBC), Strep.uberis 127A
[7] = read-out: Minimal Bactericidal Activity (MBC), Staph.Aureus 2337
[8] = read-out: Minimal Bactericidal Activity (MBC), Staph.Aureus 2372
[9] = read-out: Minimal Bactericidal Activity (MBC), Strep.uberis 60B
[10] = read-out: Minimal Bactericidal Activity (MBC), Strep.uberis 127A
[11] = in milk at pH 7.2 - 7.4, field isolate 2337
[12] = in milk at pH 7.2 - 7.4, field isolate 2372
[13] = in milk at pH 7.2 - 7.4, field isolate 60B
[14] = in milk at pH 7.2 - 7.4, field isolate 127A

In the case of COc1ccc2c(-c3ccc([N+](=O)[O-])o3)cc[n+]([O-])c2c1 [Compound 19], the “number of leucocytes (sematic cells) in milk, 40 hrs.” value (“number of leucocytes … 40 hrs.” below) (udder) was 5 10^6 per ml, the “number of leucocytes (sematic cells) in milk, 48 hrs.” value (“number of leucocytes … 48 hrs.” below) (udder) was 3 10^6 per ml and the “number of leucocytes (sematic cells) in milk, 56 hrs.” value (“number of leucocytes … 56 hrs.” below) (udder) was 2 10^6 per ml. For the same compound, the “number of leucocytes (sematic cells) in milk, before” value (“number of leucocytes … before” below) (udder) was 0.60 10^6 per ml, the “activity in presence of milk (in words)” value [1] was “significant activity in milk” and the MBC (Staph.Aureus; [3]) was 0.5 µg/mL (≈ 1.75 µM). It also gave an MBC (Staph.Aureus; [4]) of 0.5 µg/mL (≈ 1.75 µM), an MBC (Strep.uberis; [5]) of 0.12 µg/mL (≈ 0.419 µM) and an MBC (Strep.uberis; [6]) of 0.5 µg/mL (≈ 1.75 µM). For the same compound, the concentration at 24 h [2] was 26500 ng/mL and the concentration at 32 h [2] was 5000 ng/mL.
With Cc1cc(-c2ccc([N+](=O)[O-])o2)c2ccc(O)cc2[n+]1[O-] [Compound 22] the “number of leucocytes … 40 hrs.” value (udder) was 5 10^6 per ml, the “number of leucocytes … 48 hrs.” value (udder) was 5 10^6 per ml and the “number of leucocytes … 56 hrs.” value (udder) was 3.15 10^6 per ml. The “number of leucocytes … before” value (udder) was 0.28 10^6 per ml, the “activity in presence of milk (in words)” value [1] was “significant activity in milk” and the MBC (Staph.Aureus; [3]) was 1 µg/mL (≈ 3.49 µM). For the same compound, the MBC (Staph.Aureus; [4]) was 0.5 µg/mL (≈ 1.75 µM), the MBC (Strep.uberis; [5]) was 0.12 µg/mL (≈ 0.419 µM) and the MBC (Strep.uberis; [6]) was 0.5 µg/mL (≈ 1.75 µM). The concentration at 24 h [2] was 20000 ng/mL.
With CCOc1ccc2c(-c3ccc([N+](=O)[O-])o3)cc(C(=O)O)[n+]([O-])c2c1 [Compound 26] the “number of leucocytes … 40 hrs.” value (udder) was > 7.5 10^6 per ml, the “number of leucocytes … 48 hrs.” value (udder) was 3 10^6 per ml and the “number of leucocytes … 56 hrs.” value (udder) was 2.65 10^6 per ml. The “number of leucocytes … before” value (udder) was 0.22 10^6 per ml, the “activity in presence of milk (in words)” value [1] was “significant activity in milk” and the MBC (Staph.Aureus; [3]) was 1 µg/mL (≈ 2.9 µM). It also gave an MBC (Staph.Aureus; [4]) of 1 µg/mL (≈ 2.9 µM), an MBC (Strep.uberis; [5]) of 0.03 µg/mL (≈ 0.0871 µM) and an MBC (Strep.uberis; [6]) of 1 µg/mL (≈ 2.9 µM). The concentration at 24 h [2] was 12000 ng/mL and the concentration at 32 h [2] was 5000 ng/mL.
With CC[C@H]1OC(=O)[C@H](C)[C@@H](O[C@H]2C[C@@](C)(OC)[C@@H](O)[C@H](C)O2)[C@H](C)[C@@H](O[C@@H]2O[C@H](C)C[C@H](N(C)C)[C@H]2O)[C@](C)(O)C[C@@H](C)C(=O)[C@H](C)[C@@H](O)[C@]1(C)O [Erythremycin, reference compound] the MBC (Staph.Aureus; [3]) was 0.78 µg/mL (≈ 1.06 µM), the MBC (Staph.Aureus; [4]) was 6.25 µg/mL (≈ 8.52 µM) and the MBC (Strep.uberis; [5]) was 0.39 µg/mL (≈ 0.531 µM). The MBC (Strep.uberis; [6]) was 3.12 µg/mL (≈ 4.25 µM).
O=C1OC(CN2CCOCC2)CN1/N=C/c1ccc([N+](=O)[O-])o1 (centres unmarked) [Furaltadone, reference compound] gave an MBC (Staph.Aureus; [3]) of 10 µg/mL (≈ 30.8 µM), an MBC (Staph.Aureus; [4]) of 10 µg/mL (≈ 30.8 µM) and an MBC (Strep.uberis; [5]) of 1 µg/mL (≈ 3.08 µM). The MBC (Strep.uberis; [6]) was over 10 µg/mL.
Compound O=C1OCCN1/N=C/c1ccc([N+](=O)[O-])o1 [Furazolidone, reference compound] has an MBC (Staph.Aureus; [3]) of over 10 µg/mL, an MBC (Staph.Aureus; [4]) of over 10 µg/mL and an MBC (Strep.uberis; [5]) of 10 µg/mL (≈ 44.4 µM). The MBC (Strep.uberis; [6]) was over 10 µg/mL.
NC[C@H]1O[C@H](O[C@H]2[C@H](O)[C@@H](O[C@H]3O[C@H](CO)[C@@H](O)[C@H](N)[C@H]3O)[C@H](N)C[C@@H]2N)[C@H](O)[C@@H](O)[C@@H]1O [Kanamycin, reference compound] gave an MBC (Staph.Aureus; [7]) of 12.5 µg/mL (≈ 25.8 µM), an MBC (Staph.Aureus; [8]) of 12.5 µg/mL (≈ 25.8 µM) and an MBC (Strep.uberis; [9]) of 100 µg/mL (≈ 206 µM). The MBC (Strep.uberis; [10]) was 100 µg/mL (≈ 206 µM).
Work on CN(C)[C@@H]1C(=O)C(C(N)=O)=C(O)[C@@]2(O)C(=O)C3=C(O)c4c(O)cccc4[C@@](C)(O)[C@H]3[C@H](O)[C@@H]12 [Oxytetracyclin, reference compound] yielded an MBC (Staph.Aureus; [7]) of 25 µg/mL (≈ 54.3 µM), an MBC (Staph.Aureus; [8]) of 50 µg/mL (≈ 109 µM) and an MBC (Strep.uberis; [9]) of 0.78 µg/mL (≈ 1.69 µM). The MBC (Strep.uberis; [10]) was over 50 µg/mL.
For CC1(C)S[C@@H]2[C@H](NC(=O)Cc3ccccc3)C(=O)N2[C@H]1C(=O)O [Penicillin G, reference compound], the MBC (Staph.Aureus; [3]) was over 50 µg/mL, the MBC (Staph.Aureus; [4]) was over 50 µg/mL and the MBC (Strep.uberis; [5]) was 0.06 µg/mL (≈ 0.179 µM). For the same compound, the MBC (Strep.uberis; [6]) was 1.56 µg/mL (≈ 4.67 µM).
Compound CO[C@H]1/C=C/O[C@@]2(C)Oc3c(C)c(O)c4c(O)c(cc(O)c4c3C2=O)NC(=O)/C(C)=C\C=C\[C@H](C)[C@H](O)[C@@H](C)[C@@H](O)[C@@H](C)[C@H](OC(C)=O)[C@@H]1C [Rifamycin, reference compound] has an MBC (Staph.Aureus; [3]) of 0.12 µg/mL (≈ 0.172 µM), an MBC (Staph.Aureus; [4]) of 0.12 µg/mL (≈ 0.172 µM) and an MBC (Strep.uberis; [5]) of 3.12 µg/mL (≈ 4.47 µM). The MBC (Strep.uberis; [6]) was over 50 µg/mL.
For Necmycin [reference compound], the “Minimal Bactericidal Activity (MBC), Staph.Aureus 2337” value (Staph.Aureus; [11]) was 12.5 µg/mL, the “Minimal Bactericidal Activity (MBC), Staph.Aureus 2372” value (Staph.Aureus; [12]) was 12.5 µg/mL and the “Minimal Bactericidal Activity (MBC), Strep.uberis 60B” value (Strep.uberis; [13]) was 200 µg/mL. The “Minimal Bactericidal Activity (MBC), Strep.uberis 127A” value (Strep.uberis; [14]) was 200 µg/mL.
In the case of Spiramycin [reference compound], the “Minimal Bactericidal Activity (MBC), Staph.Aureus 2337” value (Staph.Aureus; [11]) was 25 µg/mL, the “Minimal Bactericidal Activity (MBC), Staph.Aureus 2372” value (Staph.Aureus; [12]) was 25 µg/mL and the “Minimal Bactericidal Activity (MBC), Strep.uberis 60B” value (Strep.uberis; [13]) was 1.56 µg/mL. For the same compound, the “Minimal Bactericidal Activity (MBC), Strep.uberis 127A” value (Strep.uberis; [14]) was 12.5 µg/mL.
